The values that follow come from patent US20040259926A1, “3-Aryloxy and 3-heteroaryloxy substituted benzo[b]thiophenes as therapeutic agents” (priority 2003, published 2004).

Broadly, the IC50 is the concentration that gives 50% inhibition.

Structures can show the parent of a compound that is named as a salt.

For the experiment, the target named is T1, PI3Kγ (recombinant p101/p110γ protein) (Homo sapiens, UniProt P48736).
T1 construct: HA; made in house; host or cells: Spodoptera frugiperda (Sf9) cells, baculovirus co-infection
T1 sequence (P48736 whole entry, species assumed): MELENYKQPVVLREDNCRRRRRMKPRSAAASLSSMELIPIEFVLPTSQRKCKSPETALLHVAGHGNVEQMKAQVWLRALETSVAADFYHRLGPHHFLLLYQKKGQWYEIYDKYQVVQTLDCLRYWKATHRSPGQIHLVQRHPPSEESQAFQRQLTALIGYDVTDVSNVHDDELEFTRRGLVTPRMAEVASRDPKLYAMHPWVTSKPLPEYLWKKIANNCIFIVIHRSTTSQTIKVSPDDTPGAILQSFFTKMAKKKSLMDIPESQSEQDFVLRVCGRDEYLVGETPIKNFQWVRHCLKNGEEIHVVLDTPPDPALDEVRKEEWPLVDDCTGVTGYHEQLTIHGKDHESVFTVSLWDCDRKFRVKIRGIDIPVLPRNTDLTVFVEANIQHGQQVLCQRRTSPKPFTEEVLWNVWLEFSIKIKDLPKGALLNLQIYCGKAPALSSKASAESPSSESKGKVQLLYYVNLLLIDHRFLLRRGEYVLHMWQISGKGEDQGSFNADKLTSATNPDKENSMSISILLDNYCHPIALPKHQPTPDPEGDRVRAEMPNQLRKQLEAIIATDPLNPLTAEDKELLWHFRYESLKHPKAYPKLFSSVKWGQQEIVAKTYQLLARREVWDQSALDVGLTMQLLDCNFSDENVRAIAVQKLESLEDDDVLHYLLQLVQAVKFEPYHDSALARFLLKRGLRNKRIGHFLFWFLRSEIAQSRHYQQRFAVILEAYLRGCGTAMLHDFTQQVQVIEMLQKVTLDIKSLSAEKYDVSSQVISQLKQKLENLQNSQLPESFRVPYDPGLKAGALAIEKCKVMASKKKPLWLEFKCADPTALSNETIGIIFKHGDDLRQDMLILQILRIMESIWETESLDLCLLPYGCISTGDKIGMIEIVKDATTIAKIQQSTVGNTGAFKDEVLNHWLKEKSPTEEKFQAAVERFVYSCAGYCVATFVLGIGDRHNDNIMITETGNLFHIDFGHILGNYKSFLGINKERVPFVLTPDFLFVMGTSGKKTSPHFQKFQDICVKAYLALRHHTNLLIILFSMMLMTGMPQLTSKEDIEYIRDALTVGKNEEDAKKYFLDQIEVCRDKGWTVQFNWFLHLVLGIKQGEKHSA
T1 sequence (Q8WYR1 whole entry partner, species assumed): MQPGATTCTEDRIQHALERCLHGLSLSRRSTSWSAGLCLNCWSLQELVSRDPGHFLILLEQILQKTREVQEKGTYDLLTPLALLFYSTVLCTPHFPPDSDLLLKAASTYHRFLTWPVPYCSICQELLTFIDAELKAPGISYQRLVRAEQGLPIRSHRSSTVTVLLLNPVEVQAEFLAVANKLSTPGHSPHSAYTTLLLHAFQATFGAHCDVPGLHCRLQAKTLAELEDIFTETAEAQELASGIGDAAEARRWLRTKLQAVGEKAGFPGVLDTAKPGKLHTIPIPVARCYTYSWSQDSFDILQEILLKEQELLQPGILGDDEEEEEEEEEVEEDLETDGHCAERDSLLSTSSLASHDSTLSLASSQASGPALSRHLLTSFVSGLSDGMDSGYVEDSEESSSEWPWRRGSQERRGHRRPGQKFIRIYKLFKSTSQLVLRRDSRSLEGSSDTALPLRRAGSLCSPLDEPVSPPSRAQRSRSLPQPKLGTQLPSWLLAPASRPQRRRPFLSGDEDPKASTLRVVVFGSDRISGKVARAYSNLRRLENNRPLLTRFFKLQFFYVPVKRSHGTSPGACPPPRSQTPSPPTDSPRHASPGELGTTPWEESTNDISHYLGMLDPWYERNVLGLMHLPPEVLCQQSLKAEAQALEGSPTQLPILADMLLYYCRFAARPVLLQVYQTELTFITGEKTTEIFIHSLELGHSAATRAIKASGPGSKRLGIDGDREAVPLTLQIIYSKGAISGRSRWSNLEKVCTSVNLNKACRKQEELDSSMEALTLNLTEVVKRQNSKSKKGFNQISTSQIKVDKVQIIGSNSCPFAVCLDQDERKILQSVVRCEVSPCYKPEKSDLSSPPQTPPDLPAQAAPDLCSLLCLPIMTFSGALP
In words: PI3Kγ In Vitro Kinase Assay. In kind it is biochemical. To be noted: purified recombinant p101/p110γ with G protein β1/γ2 subunits; 20 μM ATP, [γ-32P-ATP]; 25 μM PIP2 lipid micelles; 20 minutes at room temperature. An outline of the steps: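 Baculovirus/Sf9-expressed p101/p110γ (~2.7 nM) with Gβ1/γ2 (~57.7 nM) in HEPES/NaCl/EGTA/DTT buffer; 20 μM ATP plus [γ-32P]ATP, micelles of 25 μM PIP2, 300 μM PE, 10 mM MgCl2. Reactions ran 20 minutes at room temperature; radiolabelled PIP3 captured on glass-fibre filters and counted for IC50.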
In the case of `COc1cc2sc(C(=O)Nc3nnn[nH]3)c(OCc3ccccn3)c2cc1OC` [Example C.14, 5,6-Dimethoxy-3-(pyridin-2-ylmethoxy)-benzo[b]thiophene-2-carboxylic acid (1H-tetrazol-5-yl)-amide], the IC50 was 885 nM.

As for `COc1cc2sc(C(=O)Nc3nnn[nH]3)c(OCCc3cccc4ncccc34)c2cc1OC` [Example C.15, 5,6-Dimethoxy-3-(2-quinolin-5-yl-ethoxy)-benzo[b]thiophene-2-carboxylic acid (1H-tetrazol-5-yl)-amide], the IC50 was found to be 757 nM. Under `COc1ccc(CCOc2c(C(=O)Nc3nnn[nH]3)sc3cc(OC)c(OC)cc23)cc1OC` [Example C.16, 3-[2-(3,4-Dimethoxy-phenyl)-ethoxy]-5,6-dimethoxy-benzo[b]thiophene-2-carboxylic acid (1H-tetrazol-5-yl)-amide] stands 740 nM; under `COc1cc2sc(C(=O)Nc3nnn[nH]3)c(OCCc3cccc4ccccc34)c2cc1OC` [Example C.17, 5,6-Dimethoxy-3-(2-naphthalen-1-yl-ethoxy)-benzo[b]thiophene-2-carboxylic acid (1H-tetrazol-5-yl)-amide], 715 nM; under `COc1cc2sc(C(=O)Nc3nnn[nH]3)c(OCc3ccncc3)c2cc1OC` [Example C.18, 5,6-Dimethoxy-3-(pyridin-4-ylmethoxy)-benzo[b]thiophene-2-carboxylic acid (1H-tetrazol-5-yl)-amide], 450 nM.

With `COc1cc2sc(C(=O)Nc3nnn[nH]3)c(OCc3cccc(N(C)C)c3)c2cc1OC` [Example C.19, 3-(3-Dimethylamino-benzyloxy)-5,6-dimethoxy-benzo[b]thiophene-2-carboxylic acid (1H-tetrazol-5-yl)-amide], the IC50 is 450 nM. Next, `COc1cc2sc(C(=O)Nc3nnn[nH]3)c(OCc3ccccc3OCC3CCCCC3)c2cc1OC` [Example C.20, 3-(2-Cyclohexylmethoxy-benzyloxy)-5,6-dimethoxy-benzo[b]thiophene-2-carboxylic acid (1H-tetrazol-5-yl)-amide]: 410 nM; `COc1cc2sc(C(=O)Nc3nnn[nH]3)c(OCCc3cccc4c3CCCC4)c2cc1OC` [Example C.21, 5,6-Dimethoxy-3-[2-(5,6,7,8-tetrahydro-naphthalen-1-yl)-ethoxy]-benzo[b]thiophene-2-carboxylic acid (1H-tetrazol-5-yl)-amide]: 300 nM; `COc1cc2sc(C(=O)Nc3nnn[nH]3)c(OCc3cccc4ccccc34)c2cc1OC` [Example C.22, 5,6-Dimethoxy-3-(naphthalen-1-ylmethoxy)-benzo[b]thiophene-2-carboxylic acid (1H-tetrazol-5-yl)-amide]: 290 nM. Next, `COc1cc2sc(C(=O)Nc3nnn[nH]3)c(OC[C@@H](C)c3ccccc3)c2cc1OC` [Example C.23, 5,6-Dimethoxy-3-((S)-2-phenyl-propoxy)-benzo[b]thiophene-2-carboxylic acid (1H-tetrazol-5-yl)-amide]: 255 nM; `COc1cc2sc(C(=O)Nc3nnn[nH]3)c(OCc3cccc4c3CCCC4)c2cc1OC` [Example C.24, 5,6-Dimethoxy-3-(5,6,7,8-tetrahydro-naphthalen-1-ylmethoxy)-benzo[b]thiophene-2-carboxylic acid (1H-tetrazol-5-yl)-amide]: 255 nM; `COc1cc2sc(C(=O)Nc3nnn[nH]3)c(OCc3cccc(OC4CCCC4)c3)c2cc1OC` [Example C.25, 3-(3-Cyclopentyloxy-benzyloxy)-5,6-dimethoxy-benzo[b]thiophene-2-carboxylic acid (1H-tetrazol-5-yl)-amide]: 230 nM. As to `COc1cc2sc(C(=O)Nc3nnn[nH]3)c(OCc3cccc(OCC4CCCCC4)c3)c2cc1OC` [Example C.26, 3-(3-Cyclohexylmethoxy-benzyloxy)-5,6-dimethoxy-benzo[b]thiophene-2-carboxylic acid (1H-tetrazol-5-yl)-amide], the IC50 stood at 215 nM.

On to `COc1cc2sc(C(=O)Nc3nnn[nH]3)c(OCCc3ccc(N(C)C)cc3)c2cc1OC` [Example C.27, 3-[2-(4-Dimethylamino-phenyl)-ethoxy]-5,6-dimethoxy-benzo[b]thiophene-2-carboxylic acid (1H-tetrazol-5-yl)-amide], for which the IC50 was determined as 185 nM. `COc1cc2sc(C(=O)Nc3nnn[nH]3)c(OCc3ccc4c(c3)CCCC4)c2cc1OC` [Example C.28, 5,6-Dimethoxy-3-(5,6,7,8-tetrahydro-naphthalen-2-ylmethoxy)-benzo[b]thiophene-2-carboxylic acid (1H-tetrazol-5-yl)-amide]: the concentration for half-maximal inhibition (IC50) worked out at 185 nM. Next, `COc1cc2sc(C(=O)Nc3nnn[nH]3)c(O[C@@H](C)Cc3ccccc3)c2cc1OC` [Example C.29, 5,6-Dimethoxy-3-((S)-1-methyl-2-phenyl-ethoxy)-benzo[b]thiophene-2-carboxylic acid (1H-tetrazol-5-yl)-amide]: 145 nM; `COc1cc2sc(C(=O)Nc3nnn[nH]3)c(OCc3ccc(C4CCCCC4)cc3)c2cc1OC` [Example C.30, 3-(4-Cyclohexyl-benzyloxy)-5,6-dimethoxy-benzo[b]thiophene-2-carboxylic acid (1H-tetrazol-5-yl)-amide]: 134 nM; `COc1cc2sc(C(=O)Nc3nnn[nH]3)c(OCc3cc(C(C)(C)C)cc(C(C)(C)C)c3)c2cc1OC` [Example C.31, 3-(3,5-Di-tert-butyl-benzyloxy)-5,6-dimethoxy-benzo[b]thiophene-2-carboxylic acid (1H-tetrazol-5-yl)-amide]: 123 nM. Next, `COc1cc2sc(C(=O)Nc3nnn[nH]3)c(OCCc3cc(C)cc(C)c3)c2cc1OC` [Example C.32, 3-[2-(3,5-Dimethyl-phenyl)-ethoxy]-5,6-dimethoxy-benzo[b]thiophene-2-carboxylic acid (1H-tetrazol-5-yl)-amide]: 117 nM.

Take `COc1cc2sc(C(=O)Nc3nnn[nH]3)c(OCCCc3ccccc3)c2cc1OC` [Example C.33, 5,6-Dimethoxy-3-(3-phenyl-propoxy)-benzo[b]thiophene-2-carboxylic acid (1H-tetrazol-5-yl)-amide]: the IC50 turned out to be 115 nM. Next, `COc1cc2sc(C(=O)Nc3nnn[nH]3)c(OCC(C)(C)c3ccccc3)c2cc1OC` [Example C.34, 5,6-Dimethoxy-3-(2-methyl-2-phenyl-propoxy)-benzo[b]thiophene-2-carboxylic acid (1H-tetrazol-5-yl)-amide]: 84 nM; `COc1cc2sc(C(=O)Nc3nnn[nH]3)c(OC[C@H](C)c3ccccc3)c2cc1OC` [Example C.35, 5,6-Dimethoxy-3-((R)-2-phenyl-propoxy)-benzo[b]thiophene-2-carboxylic acid (1H-tetrazol-5-yl)-amide]: 42 nM; `COc1cc2sc(C(=O)Nc3nn[nH]n3)c(Oc3ccccc3)c2cc1C` [Example D.1, 6-Methoxy-5-methyl-3-phenoxy-benzo[b]thiophene-2-carboxylic acid (2H-tetrazol-5-yl)-amide]: 41 nM. Under `COc1cc2sc(C(=O)Nc3nn[nH]n3)c(Oc3cccc(C=O)c3)c2cc1C` [Example D.2, 3-(3-Formyl-phenoxy)-6-methoxy-5-methyl-benzo[b]thiophene-2-carboxylic acid (2H-tetrazol-5-yl)-amide] stands 150 nM; under `COc1cc2sc(C(=O)Nc3nn[nH]n3)c(Oc3cccc(C#N)c3)c2cc1C` [Example D.3, 3-(3-Cyano-phenoxy)-6-methoxy-5-methyl-benzo[b]thiophene-2-carboxylic acid (2H-tetrazol-5-yl)-amide], 275 nM. Turning to `CCOc1ccc(Oc2c(C(=O)Nc3nn[nH]n3)sc3cc(OC)c(C)cc23)cc1` [Example D.5, 3-(4-Ethoxy-phenoxy)-6-methoxy-5-methyl-benzo[b]thiophene-2-carboxylic acid (2H-tetrazol-5-yl)-amide], the IC50 came to 235 nM.

With `COc1cc2sc(C(=O)Nc3nn[nH]n3)c(Oc3ccc(C(C)(C)C)cc3)c2cc1C` [Example D.6, 3-(4-tert-Butyl-phenoxy)-6-methoxy-5-methyl-benzo[b]thiophene-2-carboxylic acid (2H-tetrazol-5-yl)-amide], the IC50 is 890 nM. Under `COc1cc2sc(C(=O)Nc3nn[nH]n3)c(Oc3cccc(C(C)(C)C)c3)c2cc1C` [Example D.7, 3-(3-tert-Butyl-phenoxy)-6-methoxy-5-methyl-benzo[b]thiophene-2-carboxylic acid (2H-tetrazol-5-yl)-amide] stands 230 nM; under `COc1cc2sc(C(=O)Nc3nnn[nH]3)c(Oc3ccc(CCCSc4ccc(Cl)cc4)cc3)c2cc1C` [Example D.8, 3-{4-[3-(4-Chlorophenenyl)sulfanylpropyl]phenoxy}-6-methoxy-5-methylbenzo[b]thiophene-2-caboxylic acid(1H-tetrazolyl)amide trifluroacetic acid salt], 2610 nM.

For `Cc1cc2sc(C(=O)Nc3nn[nH]n3)c(Oc3ccc(C4CCCCC4)cc3)c2cc1O` [Example H.1, 3-(4-Cyclohexyl-phenoxy)-5-hydroxy-6-methyl-benzo[b]thiophene-2-carboxylic acid (2H-tetrazol-5-yl)-amide], the IC50 worked out at 28 nM. Under `Cc1cc2sc(C(=O)Nc3nn[nH]n3)c(Oc3ccc(C4CCCCC4)cc3)c2cc1OC(F)F` [Example H.2, 3-(4-Cyclohexyl-phenoxy)-5-difluoromethoxy-6-methyl-benzo[b]thiophene-2-carboxylic acid (2H-tetrazol-5-yl)-amide] stands 230 nM. `COc1cc2c(Oc3ccc(C4CCCCC4)cc3)c(C(=O)Nc3nnn(C)n3)sc2cc1C` [Example K.1, 3-(4-Cyclohexyl-phenoxy)-5-methoxy-6-methyl-benzo[b]thiophene-2-carboxylic acid (2-methyl-2H-tetrazol-5-yl)-amide]: the IC50 came out at 1930 nM.
